According to ChEMBL document CHEMBL3046695, “Structure-antifeedant activity relationship of clerodane diterpenoids. Comparative study with withanolides and azadirachtin” (2000):

Test system: Tenebrio molitor
Experiment: Antifeedant activity against third-instar larvae Tenebrio molitor in compound treated carrot slices assessed as feeding inhibition at 100 ppm
Assay type: functional
Details: in Daucus carota

Compound `CC(=O)O[C@H](C[C@@]1(C)[C@H](C)CC[C@]2(C)[C@H]1CCC[C@@]21CO1)/C(=C/CO)CO` has an inhibition at 100 ppm of 51.9%.
In the case of `C[C@@H]1[C@H](O)C[C@@]23COC(=O)[C@H]2CC[C@H](O)[C@H]3[C@@]1(C)CCC1CCOC1` (stereo not given in full), the inhibition at 100 ppm is reported as 48.4%.
`C[C@H]1CC[C@@]23C(=O)OC(C[C@H]2[C@]12C[C@@H](c1ccoc1)OC2=O)[C@H]1O[C@]13C` was tested, and the inhibition at 100 ppm was 57.9%.
For `CC1=C(C)[C@H]([C@H]2O[C@@]3(O)C[C@H]4[C@@H](C[C@H]5O[C@]56CC=CC(=O)[C@]46C)[C@@H]4CC[C@@](O)([C@@H]2C)[C@]43C)OC1=O` [TRECHONOLIDE A], the inhibition at 100 ppm was 44.7%.
With `CC(=O)OC[C@@]12[C@@H](OC(C)=O)C[C@@H](C)[C@](C)(CC(=O)c3ccoc3)[C@@H]1CCC[C@]21CO1` the inhibition at 100 ppm was 58%.
Work on `C=C1CCC[C@H]2[C@@](C)(C/C=C(/CO)CCO)[C@H](C)CC[C@@]12C` yielded an inhibition at 100 ppm of 57.3%.
With `C[C@]12C[C@H](c3ccoc3)OC[C@@H]1CC[C@@]13COC(=O)[C@H]1CCC[C@@H]23` the inhibition at 100 ppm was 46%.
Compound `C[C@]12C[C@H](c3ccoc3)OC(=O)[C@@H]1CC[C@@]13COC(=O)C1=CCC[C@H]32` has an inhibition at 100 ppm of 22.6%.
With `C[C@]12C[C@H](c3ccoc3)OC(=O)[C@H]1CC[C@@]13COC(=O)[C@H]1C=CC[C@@H]23` the inhibition at 100 ppm was 47.3%.
Compound `CC(=O)OC[C@@]12[C@@H](OC(C)=O)C[C@@H](C)[C@]3(C[C@H](c4ccoc4)OC3=O)[C@H]1CCCC2(O)O` has an inhibition at 100 ppm of 45%.
`C[C@H](c1ccc2c(c1)CC[C@H]1[C@H]2C[C@@H]2O[C@@]23CC=CC(=O)[C@]13C)[C@@H]1C[C@@]2(C)O[C@@]2(C)[C@@H](O)O1` was tested, and the inhibition at 100 ppm was 29.9%.
Work on `C[C@@H]1CC[C@@]23COC(=O)C2=CCC[C@H]3[C@@]1(C)CCC1COC(=O)C1` (stereo not given in full) yielded an inhibition at 100 ppm of 62.6%.
In the case of `CC1=C(C)C(=O)OC(C2CO[C@@]3(O)C[C@H]4[C@@H](C[C@@H](O)[C@@]5(O)CC=CC(=O)[C@]45C)[C@@H]4CC[C@]2(O)C43)C1` (stereo not given in full), the inhibition at 100 ppm is reported as 31.6%.
For `CC(=O)OC[C@@]12[C@@H](OC(C)=O)C[C@@H](C)[C@]3(C[C@H](c4ccoc4)OC3=O)[C@H]1CCC[C@@H]2C=O`, the inhibition at 100 ppm was 41%.
`C[C@@H]1CC[C@@]23COC(=O)C2=CCC[C@H]3[C@@]1(C)CCc1ccoc1` gave an inhibition at 100 ppm of 31%.
For `C[C@]12C[C@H](c3ccoc3)OC(=O)[C@@H]1[C@H](O)C[C@@]13COC(=O)C1=CCC[C@H]32`, the inhibition at 100 ppm was 26.6%.
Compound `CC(=O)OC[C@@]12[C@@H](OC(C)=O)C[C@@H](C)[C@]3(C[C@H](c4ccoc4)OC3=O)[C@H]1CCC[C@]21CO1` [MONTANIN C] has an inhibition at 100 ppm of 25%.
`CC1=CC2C[C@@H]3[C@@]1(CC[C@H](C)[C@@]31C[C@@H](c3ccoc3)OC1=O)C(=O)O2` showed an inhibition at 100 ppm of 62.7%.
In the case of `C[C@@H]1[C@H](O)C[C@@]23COC(=O)C2=CC[C@H](O)[C@H]3[C@@]1(C)CCc1ccoc1`, the inhibition at 100 ppm is reported as 31.3%.
For `CC(=O)OC[C@@]12[C@@H](OC(C)=O)C[C@@H](C)[C@](C)(C[C@H](OC(C)=O)c3ccoc3)[C@@H]1CCC[C@]21CO1`, the inhibition at 100 ppm was 31.4%.
In the case of `CC(=O)OC[C@@]12[C@@H](OC(C)=O)C[C@@H](C)[C@]3(C[C@H](c4ccoc4)OC3=O)[C@H]1CC[C@H](OC(C)=O)[C@]21CO1`, the inhibition at 100 ppm is reported as 30.6%.
Work on `COC1C=C([C@H]2C[C@@]3(C(=O)O2)[C@H](C)C[C@H](OC(C)=O)[C@]2(COC(C)=O)[C@@H]3CCC[C@]23CO3)C(OC)O1` (stereo not given in full) yielded an inhibition at 100 ppm of 47.3%.
With `C/C=C(\C)C(=O)O[C@H]1C[C@@H](OC(C)=O)[C@@]2(C(=O)OC)CO[C@H]3[C@@H](O)[C@@](C)([C@]45O[C@@]4(C)[C@@H]4C[C@H]5O[C@@H]5OC=C[C@@]54O)[C@H]4[C@]1(CO[C@]4(O)C(=O)OC)[C@@H]32` [AZADIRACHTIN A] the inhibition at 100 ppm was 29.6%.
`C[C@]12C[C@H](C3CCOC3)OC(=O)[C@@H]1CC[C@@]13COC(=O)[C@H]1CCC[C@@H]23` (stereo not given in full) gave an inhibition at 100 ppm of 49.4%.
For `C[C@@H]1CC[C@@]2(CO)C(CO)=CCC[C@H]2[C@@]1(C)CCc1ccoc1`, the inhibition at 100 ppm was 48.7%.
